Assay results as given in the NIST ThermoML archive (doi:10.1021/je400082c).

Conditions: Liquid

CC(O)CO (centres undefined) [1,2-propanediol]
Conditions | vapor or sublimation pressure [kPa]
398.23 K, Ebulliometric method (Recirculating still) | 10

OCCO [1,2-ethanediol]
Conditions | vapor or sublimation pressure [kPa]
386.15 K | 3.92
389.12 K | 4.51
389.95 K | 4.78
390.75 K | 4.89
395.25 K | 6.08
400.78 K | 7.87
402.15 K | 8.37
405.85 K | 9.85
406.09 K | 10
406.25 K | 10.02
409.3 K | 11.42
411.15 K | 12.41
411.85 K | 12.85
413.85 K | 13.85
416.45 K | 15.37

CCC(O)CO (centres undefined) [1,2-butanediol]
Conditions | vapor or sublimation pressure [kPa]
372.06 K | 1.89
382.61 K | 3.33
390.52 K | 4.96
395.55 K | 6.36
399.56 K | 7.66
402.61 K | 8.81
405.13 K | 9.9
405.42 K | 10
408.5 K | 11.39
413.34 K | 14.09
418.29 K | 17.27
421.49 K | 19.63
424.91 K | 22.54
427.57 K | 25.06
429.92 K | 27.24
432.76 K | 30.39
435.37 K | 33.36
438.52 K | 37.3
439.97 K | 39.3
441.78 K | 41.9
443.55 K | 44.75

CC(O)CCO (centres undefined) [1,3-butanediol]
Conditions | vapor or sublimation pressure [kPa]
387.75 K | 2.43
395.13 K | 3.6
402.05 K | 5.03
406.61 K | 6.26
411.11 K | 7.72
413.41 K | 8.54
416.91 K | 10
418.03 K | 10.48
420.85 K | 11.87
422.04 K | 12.54
425.8 K | 14.63
427.74 K | 15.84
429.75 K | 17.09
433.71 K | 19.96
436.29 K | 22.24
439.65 K | 25.3
442.45 K | 28.15
444.75 K | 30.78
447.01 K | 33.36
449.8 K | 36.78
451.7 K | 39.45
453.1 K | 41.39
